Source: patent publication US12582652B2, “3-(ethoxydifluoromethyl)-6-(5-fluoro-6-(2,2,2-trifluoroethoxy)pyridin-3-yl)-[1,2,4]triazolo[4,3-a]pyrazine as an ion channel modulator” (Praxis Precision Medicines, Inc., priority 2022, dated 2026)
Entries after “also recorded” stand apart in the source; their conditions may differ.

Key:
[1] = tested on: healthy participants; assay: Phase 1 SAD/MAD trial: EEG pharmacodynamics (ASSR, qEEG); format: in vivo, human; settings: for reduction from baseline in ASSR phase-locking factor (PLF): Day 14, 2 hours 35 minutes postdose
Description: (§1) This was a 3-part Phase 1 clinical trial in healthy participants aged 18-55 years. Parts A and B were randomized, placebo-controlled and evaluated the effects of single (2.5-150 mg) and multiple (30-120 mg, 14 days QD (every day)) ascending oral doses of Compound 1, respectively. Part C was an open-label, randomized, crossover design evaluating the PK of a single oral dose (90 mg) in fasted and fed states. In Parts A (n=64) and B (n=32), participants were randomized 3:1 to Compound 1 or placebo (n=8/cohort). In Part C (n=16), participants were randomized 1:1 to one of two treatment sequences receiving a single dose of 90 mg Compound 1 in the fed (following a high-fat/high calorie meal) or fasted (≥10 hours after the last, and 4 hours before the next, meal) state.
In this clinical trial, the PD activity of Compound 1 was evaluated in healthy participants using electroencephalogram (EEG)-based auditory steady-state response (ASSR) measures and resting state EEG (qEEG)-based spectral power measures under eyes-open and eyes-closed conditions.

[2] = Compound 1 human pharmacokinetics as stated in trial rationale; format: in vivo; settings: predicted from current knowledge of pharmacokinetics
[3] = tested on: male CD-1 mice; assay: Maximal electroshock induced seizure (MES) test; format: in vivo, mouse
Description: Food and water were available ad libitum.
VPA was prepared in saline (Vehicle 1). All solutions were protected from light. All compounds and vehicles were dosed at 10 ml/kg.
The MES test was carried out over two days with 6 of 12 mice from each treatment group being tested on each day. Mice were brought to the test room at least one hour before the start of the experiment.
A Grass S88x (Grass Technologies of Astro-Med, Inc., West Warwick, RI) Stimulus Isolation Unit (A385, WPI Inc., USA) was set to deliver a 50 mA square-wave stimulus, with a 0.8 second duration, a pulse width of 10 msec, and a frequency of 50 Hz. A pair of custom stainless steel electrodes were soaked in 0.2% Agar, and then the subject received bilateral transauricular stimulation through ear-clip electrodes. During the stimulation, mice were manually restrained. They were then released into the observation cage for convulsion observation for 60 seconds immediately after stimulation. Each mouse was observed continuously by individuals blinded to treatment conditions and results were recorded.
Anti-seizure assessment endpoints were: (1) latency of hindlimb tonic flexion; (2) latency of hindlimb tonic extension; (3) total #hindlimb tonic flexions; (4) total #hindlimb tonic extensions; (5) latency to death; and (6) mortality rate
From these fitted curves, ED50 and EC50 values were calculated.

[4] = 2-part Phase 1 trial (28 days; OXC combination): pharmacokinetics
Description: (§3) This was a 2-part randomized, placebo-controlled Phase 1 trial in healthy participants aged 18-55 years. […] PD effects were examined on quantitative EEG (qEEG; resting and vigilant conditions) and stimulated EEG using auditory steady state response (ASSR). A total of 48 participants were enrolled; Part A, n=30; Part B, n=18.

[5] = tested on: healthy participants; assay: 2-part Phase 1 trial (28 days; OXC combination): qEEG and ASSR pharmacodynamics; format: in vivo, human; settings: Part A, 90 mg QD 28 days
Description: as §3

[6] = target: T1, human NaV1.6 (Homo sapiens, UniProt Q9UQD0); assay: Peak INa use-dependent block (UDB-10 Hz), PatchXpress patch clamp; format: cell-based
T1 construct: stably expressing either human NaV1.6 (NP_055006); expressed in transfected cells
T1 sequence (Q9UQD0 whole entry): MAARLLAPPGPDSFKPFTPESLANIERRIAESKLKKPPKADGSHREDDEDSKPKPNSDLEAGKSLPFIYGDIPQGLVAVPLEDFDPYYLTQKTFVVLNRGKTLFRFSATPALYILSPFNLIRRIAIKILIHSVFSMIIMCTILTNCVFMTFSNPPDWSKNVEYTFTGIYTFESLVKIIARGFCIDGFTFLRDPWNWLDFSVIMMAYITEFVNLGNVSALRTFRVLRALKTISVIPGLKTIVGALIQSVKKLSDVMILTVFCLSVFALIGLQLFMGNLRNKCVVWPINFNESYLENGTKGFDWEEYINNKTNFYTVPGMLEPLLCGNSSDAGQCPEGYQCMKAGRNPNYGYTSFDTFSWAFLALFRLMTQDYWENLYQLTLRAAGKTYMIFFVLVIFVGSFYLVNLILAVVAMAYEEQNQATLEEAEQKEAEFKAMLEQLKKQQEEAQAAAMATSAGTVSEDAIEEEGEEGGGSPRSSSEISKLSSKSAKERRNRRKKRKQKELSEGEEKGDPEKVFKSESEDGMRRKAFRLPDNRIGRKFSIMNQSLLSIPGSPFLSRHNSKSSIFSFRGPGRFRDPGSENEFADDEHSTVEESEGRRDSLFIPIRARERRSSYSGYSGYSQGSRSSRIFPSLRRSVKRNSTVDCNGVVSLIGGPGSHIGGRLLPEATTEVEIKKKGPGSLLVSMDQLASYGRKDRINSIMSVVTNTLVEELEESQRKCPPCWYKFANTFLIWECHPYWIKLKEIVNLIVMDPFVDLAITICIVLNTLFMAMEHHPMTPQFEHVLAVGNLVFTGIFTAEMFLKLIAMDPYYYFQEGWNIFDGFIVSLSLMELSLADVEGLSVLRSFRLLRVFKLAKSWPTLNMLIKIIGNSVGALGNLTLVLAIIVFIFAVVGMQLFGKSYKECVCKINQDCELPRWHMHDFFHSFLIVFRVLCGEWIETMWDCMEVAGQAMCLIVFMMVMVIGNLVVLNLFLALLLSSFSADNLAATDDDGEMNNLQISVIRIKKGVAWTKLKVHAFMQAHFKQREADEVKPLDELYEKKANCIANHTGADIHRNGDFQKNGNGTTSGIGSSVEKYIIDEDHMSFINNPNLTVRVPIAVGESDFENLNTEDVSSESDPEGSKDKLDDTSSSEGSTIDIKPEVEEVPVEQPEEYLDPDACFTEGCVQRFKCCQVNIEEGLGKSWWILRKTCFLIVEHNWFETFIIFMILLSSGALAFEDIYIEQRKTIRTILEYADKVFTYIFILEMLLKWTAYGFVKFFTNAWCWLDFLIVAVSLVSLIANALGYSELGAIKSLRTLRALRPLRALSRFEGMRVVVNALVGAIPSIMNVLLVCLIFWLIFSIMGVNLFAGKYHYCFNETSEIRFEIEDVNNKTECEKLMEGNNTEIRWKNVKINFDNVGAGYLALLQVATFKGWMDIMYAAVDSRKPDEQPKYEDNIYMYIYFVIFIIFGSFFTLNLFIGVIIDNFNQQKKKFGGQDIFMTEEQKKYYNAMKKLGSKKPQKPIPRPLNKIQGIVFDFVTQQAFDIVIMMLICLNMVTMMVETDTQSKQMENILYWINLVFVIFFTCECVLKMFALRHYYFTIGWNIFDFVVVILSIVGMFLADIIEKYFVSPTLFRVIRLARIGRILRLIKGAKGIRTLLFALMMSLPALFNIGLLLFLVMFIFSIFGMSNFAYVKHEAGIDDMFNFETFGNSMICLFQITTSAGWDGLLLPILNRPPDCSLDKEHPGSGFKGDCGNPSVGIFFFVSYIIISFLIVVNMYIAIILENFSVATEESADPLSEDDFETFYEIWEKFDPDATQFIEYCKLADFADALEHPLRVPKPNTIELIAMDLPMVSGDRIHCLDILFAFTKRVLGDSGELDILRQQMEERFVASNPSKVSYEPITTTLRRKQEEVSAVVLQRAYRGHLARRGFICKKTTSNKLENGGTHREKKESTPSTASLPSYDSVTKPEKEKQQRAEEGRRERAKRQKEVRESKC

[7] = target: T2, hNaV1.6-N1768D (Homo sapiens, UniProt Q9UQD0, N1768D); assay: Persistent INa expressed by DEE mutant channel, patch clamp; format: cell-based; settings: hNaV1.6-N1768D DEE mutant
T2 construct: expressed in transfected cells
T2 sequence (Q9UQD0 whole entry N1768D): as the sequence (Q9UQD0 whole entry) above, with N1768D counted along it

[8] = target: hNaV1.2 (Homo sapiens, UniProt Q99250); assay: Peak INa tonic block, patch clamp; format: cell-based
Description: (§2) Tonic Block (TB): Tonic Block (TB) protocols used low stimulation rates (about 0.1 Hz) and negative potentials (−120 mV) to keep channels in closed (resting) states. Pharmacology was measured during peak INa in response to step to 0 mV. No leak subtraction was used.

[9] = target: hNaV1.5 (Homo sapiens, UniProt Q14524); assay: Peak INa tonic block, patch clamp; format: cell-based
Chain of hNaV1.5 (Q14524 1-2015 isoform Q14524-2): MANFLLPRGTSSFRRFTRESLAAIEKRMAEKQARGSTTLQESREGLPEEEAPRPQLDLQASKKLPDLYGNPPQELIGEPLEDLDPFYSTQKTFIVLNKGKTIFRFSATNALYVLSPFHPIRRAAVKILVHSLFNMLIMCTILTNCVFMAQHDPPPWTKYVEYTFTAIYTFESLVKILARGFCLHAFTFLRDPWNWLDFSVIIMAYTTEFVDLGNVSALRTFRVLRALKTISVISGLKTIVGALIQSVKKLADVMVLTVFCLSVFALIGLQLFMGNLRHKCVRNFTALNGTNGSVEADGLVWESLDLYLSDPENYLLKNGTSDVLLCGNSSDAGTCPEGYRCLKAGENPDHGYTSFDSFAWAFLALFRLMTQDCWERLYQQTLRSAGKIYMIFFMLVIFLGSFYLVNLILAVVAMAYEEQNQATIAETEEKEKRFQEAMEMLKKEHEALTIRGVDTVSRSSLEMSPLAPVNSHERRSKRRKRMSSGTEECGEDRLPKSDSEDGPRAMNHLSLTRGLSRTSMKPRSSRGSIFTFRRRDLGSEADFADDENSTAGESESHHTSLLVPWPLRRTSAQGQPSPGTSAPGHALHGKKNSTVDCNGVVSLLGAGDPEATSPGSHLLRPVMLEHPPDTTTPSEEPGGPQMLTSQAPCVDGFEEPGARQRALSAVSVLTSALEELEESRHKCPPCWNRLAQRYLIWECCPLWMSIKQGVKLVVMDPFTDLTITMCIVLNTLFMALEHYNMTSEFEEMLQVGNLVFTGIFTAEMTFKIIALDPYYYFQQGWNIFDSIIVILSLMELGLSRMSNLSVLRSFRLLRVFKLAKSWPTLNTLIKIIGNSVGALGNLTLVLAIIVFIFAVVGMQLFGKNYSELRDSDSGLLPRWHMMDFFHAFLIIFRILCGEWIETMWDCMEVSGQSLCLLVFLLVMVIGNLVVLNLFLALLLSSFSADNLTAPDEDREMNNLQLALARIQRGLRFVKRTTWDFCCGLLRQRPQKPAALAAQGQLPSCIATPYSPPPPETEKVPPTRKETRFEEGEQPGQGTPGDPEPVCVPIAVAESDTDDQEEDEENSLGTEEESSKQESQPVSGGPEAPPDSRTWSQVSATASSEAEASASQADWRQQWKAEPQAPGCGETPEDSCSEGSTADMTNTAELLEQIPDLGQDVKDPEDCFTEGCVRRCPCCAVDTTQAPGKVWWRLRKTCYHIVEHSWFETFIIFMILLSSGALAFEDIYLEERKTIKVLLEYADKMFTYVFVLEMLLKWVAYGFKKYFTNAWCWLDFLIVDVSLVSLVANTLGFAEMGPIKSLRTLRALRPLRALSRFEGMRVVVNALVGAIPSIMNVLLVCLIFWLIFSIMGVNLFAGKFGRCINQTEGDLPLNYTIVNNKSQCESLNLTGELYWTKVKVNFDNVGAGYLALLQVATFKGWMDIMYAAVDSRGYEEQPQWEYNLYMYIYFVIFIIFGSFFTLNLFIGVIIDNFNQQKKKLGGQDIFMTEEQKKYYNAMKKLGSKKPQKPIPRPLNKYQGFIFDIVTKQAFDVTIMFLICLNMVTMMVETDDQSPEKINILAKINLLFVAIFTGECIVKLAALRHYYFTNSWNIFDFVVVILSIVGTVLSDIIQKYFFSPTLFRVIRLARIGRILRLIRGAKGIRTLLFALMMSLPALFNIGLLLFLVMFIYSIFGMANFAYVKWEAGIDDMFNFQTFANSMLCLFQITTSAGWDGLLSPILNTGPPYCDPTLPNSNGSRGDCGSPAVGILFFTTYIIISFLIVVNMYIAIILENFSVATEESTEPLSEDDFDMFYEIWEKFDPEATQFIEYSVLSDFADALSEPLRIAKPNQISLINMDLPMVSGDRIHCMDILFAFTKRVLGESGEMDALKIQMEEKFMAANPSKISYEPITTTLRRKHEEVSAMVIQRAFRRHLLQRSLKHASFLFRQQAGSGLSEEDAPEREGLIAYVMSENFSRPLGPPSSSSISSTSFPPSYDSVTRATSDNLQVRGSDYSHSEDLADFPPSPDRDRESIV
Description: as §2

[10] = target: hNaV1.1 (Homo sapiens, UniProt P35498); assay: Peak INa tonic block, patch clamp; format: cell-based
Description: as §2

[11] = tested on: healthy participants; assay: 2-part Phase 1 trial (28 days; OXC combination): safety and tolerability; format: in vivo, human
Description: as §3

[12] = Phase 1 SAD/MAD/food effect trial: pharmacokinetics; format: in vivo, human
Description: as §1

CCOC(F)(F)c1nnc2cnc(-c3cnc(OCC(F)(F)F)c(F)c3)cn12 [Compound 1, 3-(ethoxydifluoromethyl)-6-(5-fluoro-6-(2,2,2-trifluoroethoxy)pyridin-3-yl)-[1,2,4]triazolo[4,3-a]pyrazine]
reduction from baseline in ASSR phase-locking factor (PLF) ([1]; 90 mg QD): approximately 30% | reduction from baseline in ASSR phase-locking factor (PLF) ([1]; 120 mg QD): ~60% | qEEG Delta (1.5-6 Hz) and Theta (6-8.5 Hz) band spectral power ([1]; 120 mg single dose and 120 mg QD): Increases from baseline | ASSR-based absolute evoked gamma power vs placebo ([1]; any Compound 1 dose level): No statistically significant differences | time predicted to achieve 90% steady state [2]: about 6 weeks | latency to seizures following bilateral transauricular stimulation ([3]; 3 mg/kg p.o., 30 min before test): significantly increased | mice that did not exhibit tonic seizures ([3]; Compound 1 10 mg/kg): 11 of 12 | protection (increase in latency) against MES-induced tonic hindlimb seizures, dose-response ([3]; Compound 1 0.3-10 mg/kg po): dose-dependent increases in latency; also recorded: dose-dependent protection | ED50 ([3]; mouse MES, read-out: Efficacy (MES) ED50, increasing latency to tonic extension seizures): 2 mg/kg | approach to steady state ([4]; 90 mg QD for 28 days, Part A): approached steady state | increase in Compound 1 concentrations over human-equivalent dose required for efficacy in preclinical MES models ([4]; Part A, 90 mg QD): 13 fold | Compound 1 exposure with OXC coadministration ([4]; Part B, data not shown): did not appear to be altered | qEEG (Delta and Theta power) and ASSR (PLF and Evoked Power) vs placebo [5]: Statistically significant differences | Ratio to Peak INa (TB) (UDB-10 Hz) ([6]; hNaV1.6): 31 | Ratio to Pers. INa (Peak INa UDB-10 Hz / persistent INa) ([6]; hNaV1.6): 2 | IC50 ([6]; hNaV1.6, 10 Hz): 0.271 µM | Peak INa UDB-10 Hz maximum inhibition ([6]; hNaV1.6, 10 Hz): 75% | use-dependent block at stimulation frequency of 10 Hz ([6]; hNaV1.6, 10 Hz): concentration dependent inhibition | use-dependent block at increased frequencies ([6]; hNaV1.6, 10 Hz, 30 Hz or 50 Hz): significantly greater compared with CBZ | IC50 [7]: 0.075 µM | IC50 [8]: 13.7 µM | preference for persistent INa over peak INa tonic block [8]: 80 fold | preference for persistent INa over peak INa tonic block [9]: > 174 fold | peak INa tonic block inhibition ([9]; at 30 000 nmol/L): 12% | IC50 [10]: 18.9 µM | preference for persistent INa over peak INa tonic block [10]: 173 fold | tolerability in healthy adults ([11]; 90 mg, Part A): well tolerated | TEAEs mild in severity ([11]; Part A): 71% | TEAEs moderate ([11]; Part A): 29% | TEAEs severe ([11]; Part A): 0% | number of TEAEs ([11]; Part A): 35 | participants with TEAEs ([11]; Part A (n=30 enrolled)): 13 | TEAEs mild or moderate ([11]; Part A, 90 mg QD vs placebo): 100% | review of ALT/AST increases and rhabdomyolysis, causal association ([11]; Part B): did not identify a causal association | TEAEs mild or moderate ([11]; Part B, OXC + 120 mg Compound 1 vs OXC alone): 96% | TEAEs mild in severity ([11]; Part B, both arms): 51% | TEAEs moderate ([11]; Part B, both arms): 45% | TEAEs severe ([11]; Part B, both arms): 4% | number of TEAEs ([11]; Part B, both arms): 74 | participants with TEAEs ([11]; Part B, both arms (n=18 enrolled)): 16 | safety findings in vital signs, physical exams, ECGs, C-SSRS ([11]; Parts A and B): no clinically significant safety findings | exposure over the evaluated dose range ([12]; healthy adults, oral, single 2.5-150 mg, multiple 30-120 mg QD): increased dose proportionally | increase in AUC, fed vs fasted state ([12]; single 90-mg dose): 14% | increase in Cmax, fed vs fasted state ([12]; single 90-mg dose): 9%
